Reference: publication PMC11678906, “Evaluation of In Vitro Inhibition of β-Hematin Formation: A Step Towards a Comprehensive Understanding of the Mechanism of Action of New Arylamino Alcohols” (Microorganisms, 2024)
Read-outs that look alike come from different tables or passages of the source.

Experiments:
[1] = tested on: β-hematin formation; assay: Inhibition of β-hematin formation; assay type: biochemical; conditions: for Inhibition (%) of β-hematin formation at 2 mM: 24 h at 37 °C, versus negative control, mean ± SD of three experiments; for IC50: concentration range 0–2 mM, determined graphically
Procedure: Briefly, 100 μL of a fresh 6.5 mM solution of hemin (Sigma-Aldrich, SaintQuentin Fallavier, France) dissolved in 0.2 M NaOH was mixed with 100 μL of 3 M sodium acetate, 25 μL of 17.4 M acetic acid and 25 μL of the tested drug or controls (water and MeOH/DMSO). Magnetic stirring of the solution was used to avoid sedimentation. After 24 h incubation at 37 °C under shaking, the supernatant resulting from centrifugation for 15 min at 3300× g was discarded. The pellet was washed twice with 200 μL DMSO. After a final wash with water, the pellet was dissolved in 200 μL with 0.1 M NaOH. After a further 1:30 dilution, absorption at 405 nm was read using a microplate photometer (Multiskan® EX, Thermo Scientific, Waltham, MA, USA). CQ, MQ, ENP (considered as positive controls), water and MeOH/DMSO (considered as negative controls) were included in each experiment. […] Statistical significance was defined as a value of p ≤ 0.05.

[2] = tested on: HepG2 cell line; assay: In vitro cytotoxicity, MTT assay on HepG2; assay type: cell-based, human; conditions: for Selectivity Index HepG2/3D7: CC50 on HepG2 / IC50 against Pf3D7; for SI times higher than that of parental drug MQ: versus MQ
Procedure: (§1) Briefly, in 96-well plates, 100 µL of a cell culture adjusted to 25,000 cells/mL was dispensed and the plates were incubated at 37 °C in a humidified 5% CO2 atmosphere for 24 h to allow the cells to adhere to the bottom of the wells. After microscopic verification of the adherent cells, the culture medium was removed and replaced with 100 μL of medium with the compounds at various concentrations dissolved in DMSO (final concentration less than 0.5% v/v), and the plates were incubated for 72 h at 37 °C. Controls were DMSO in medium (0.5% v/v) without compound as blank. Then, the supernatant from each well was removed prior to the addition of 100 µL of 3-(4,5-dimethyl-2-thiazolyl)-2,5-diphenyl-2H-tetrazolium bromide (MTT) solution (0.5 mg/mL in culture medium) per well. After 2 h of incubation, the supernatant from each well was removed and 100 µL of DMSO was added to dissolve the resulting blue formazan crystals accumulated at the bottom of the wells. The plates were incubated for 5 min at 37 °C in a humidified 5% CO2 atmosphere. Then, the wells were homogenized by shaking the plates for 10 min with a microplate shaker. The absorbance was read using the Tecan’s Sunrise™ absorbance microplate reader at 570 nm with 630 nm as the reference wavelength. […] Selectivity index (SI) was calculated and defined as the ratio between CC50 values on HepG2 and IC50.

[3] = In vitro cytotoxicity, MTT assay on HepG2; assay type: cell-based, human; conditions: human, HepG2 cells; MTT, 72 h incubation; mean ± SD of three experiments
Procedure: as §1

[4] = tested on: Plasmodium falciparum 3D7 strain; set-up: method as in earlier work; conditions: SYBR Green I, strain with decreased susceptibility to MQ; previously determined for 2a-b, 3a-b and reference molecules; read-out: IC50 Pf3D7; cited from earlier work
[5] = tested on: Plasmodium falciparum W2 strain; set-up: method as in earlier work; conditions: SYBR Green I, CQ-resistant strain; previously determined for 2a-b, 3a-b and reference molecules; read-out: IC50 PfW2; cited from earlier work
[6] = tested on: Plasmodium falciparum W2 strain; assay: In vitro antimalarial activity, SYBR Green I fluorescence-based method, PfW2; assay type: cell-based; conditions: for Eudysmic Ratio PfW2: ratio of IC50s of the enantiomer pair, eutomer configuration in parentheses; for IC50: Plasmodium falciparum, W2, SYBR Green I, 48 h incubation, CQ-resistant strain, 1a-b re-assayed here, mean ± SD of three experiments
From the text: (§2) IC50s, corresponding to in vitro antimalarial activity against PfW2 and Pf3D7, was previously determined for compounds 2a-b, 3a-b and reference molecules using the SYBR Green I fluorescence-based method. As compounds 1a-b were previously screened using the hypoxanthine-tritied method, they were here re-assayed with the SYBR Green I fluorescence-based method described elsewhere for comparison with the other two Series (2 and 3) and reference molecules. When possible, eudysmic ratios were calculated. The SYBR green I fluorescence-based method is detailed below.
(§3) Compounds were dissolved in DMSO and then diluted in sterile water in order to obtain a range of concentrations from 40 nM to […] for the first screening against culture-adapted Plasmodium falciparum reference strains 3D7 and W2. […] These two strains were obtained from the collection of the National Museum of Natural History (Paris, France). The parasites were cultivated in RPMI medium (Sigma-Aldrich, Saint Quentin Fallavier, France) supplemented with 0.5% Albumax I (Life Technologies Corporation, Paisley, UK), hypoxanthine (Sigma-Aldrich, Saint Quentin Fallavier, France) and gentamicin (Sigma-Aldrich, Saint Quentin Fallavier, France) with human erythrocytes and were incubated at 37 °C with 5% CO2 [26]. The P. falciparum drug susceptibility test was carried out in 96-well flat-bottomed sterile plates in a final volume of 250 μL. After a 48 h incubation period with the drugs, quantities of DNA in treated and control cultures of parasites in human erythrocytes were quantified using the SYBR Green I (Sigma-Aldrich, Saint Quentin Fallavier, France) fluorescence-based method. Briefly, after incubation, the plates were frozen at −20 °C until use. The plates were then thawed for 2 h at room temperature, and 100 μL of each homogenized culture was transferred to a well of a 96-well flat-bottomed sterile black plate (Sigma-Aldrich, Saint Quentin Fallavier, France) that contained 100 μL of the SYBR Green I lysis buffer (2xSYBR Green, 20 mM Tris base pH 7.5, 5 mM EDTA, 0.008% w/v saponin, 0.08% w/v Triton X-100). Negative controls treated with solvent (typically DMSO or H2O) and positive controls (CQ and MQ) were added to each set of experiments. Plates were incubated for 1 h at room temperature and then read on a fluorescence plate reader (Tecan Trading AG, Männedorf, Switzerland) using excitation and emission wavelengths of 485 and 535 nm, respectively.

[7] = tested on: Plasmodium falciparum 3D7 strain; assay: In vitro antimalarial activity, SYBR Green I fluorescence-based method, Pf3D7; assay type: cell-based; conditions: for Eudysmic Ratio Pf3D7: ratio of IC50s of the enantiomer pair, eutomer configuration in parentheses; for IC50: Plasmodium falciparum, 3D7, SYBR Green I, 48 h incubation, strain with decreased susceptibility to MQ, 1a-b re-assayed here, mean ± SD of three experiments
From the text: as §2, §3

[8] = tested on: hemozoin formation; conditions: according to different studies; cited from earlier work
[9] = tested on: PfW2; set-up: method as in PMID 8513873; conditions: Figure 1; cited from earlier work
[10] = tested on: PfD6; set-up: method as in PMID 8513873; conditions: Figure 1; cited from earlier work
[11] = tested on: Plasmodium falciparum; set-up: method as in PMID 8513873; conditions: Figure 1, (S,R) vs (R,S) MQ, (+)- vs (-)-ENP; cited from earlier work

Row | Structure (SMILES) | IC50 [1] | IC50 [6] | IC50 [7] | Inhibition (%) of β-hematin formation at 2 mM [1] | Selectivity Index HepG2/3D7 [2] | CC50 at 72 h [3] | IC50 [4] | IC50 [5] | Eudysmic Ratio PfW2 [6] | Eudysmic Ratio Pf3D7 [7] | SI times higher than that of parental drug MQ [2] | inhibition of in vitro hemozoin formation [8] | IC50 [9] | IC50 [10] | IC50 ratio between enantiomers [11]
1 | CCN(CC)CCCC(C)Nc1ccnc2cc(Cl)ccc12 (stereo not drawn) [Chloroquine, chloroquine, reference compound] |  |  |  |  |  |  | 0.0759 ± 0.003 µM | 0.199 ± 0.027 µM |  |  |  | up to 90% |  |  | 
2 | OC(c1cc(C(F)(F)F)nc2c(C(F)(F)F)cccc12)C1CCCCN1 (stereo not drawn) [Mefloquine, mefloquine, reference compound] |  |  |  | 61.3 ± 8.5% |  | 8.6 ± 2.6 µM | 0.0797 ± 0.0085 µM | 0.0318 ± 0.001 µM |  |  |  |  | 0.0039 µM | 0.0344 µM | 
3 | OC(c1cc(-c2ccc(C(F)(F)F)cc2)nc(C(F)(F)F)c1)C1CCCCN1 (stereo not drawn) [Enpiroline, enpiroline, reference compound] | > 2000 µM |  |  | 20.3 ND ^c % | 204 | 4.4 ± 0.6 µM | 0.0216 ± 0.0014 µM | 0.0115 ± 0.0023 µM |  |  |  |  | 0.00285 µM | 0.0164 µM | 1.15–1.22 times

The next lines start with results.

Row | IC50 [1] | IC50 [6] | IC50 [7] | Structure (SMILES) | Inhibition (%) of β-hematin formation at 2 mM [1] | Selectivity Index HepG2/3D7 [2] | CC50 at 72 h [3] | IC50 [4] | IC50 [5] | Eudysmic Ratio PfW2 [6] | Eudysmic Ratio Pf3D7 [7] | SI times higher than that of parental drug MQ [2] | inhibition of in vitro hemozoin formation [8] | IC50 [9] | IC50 [10] | IC50 ratio between enantiomers [11]
4 | 1770 ± 220 µM |  |  | CCCCNC[C@H](O)c1cc(-c2ccc(C(F)(F)F)cc2)nc(C(F)(F)F)c1 [2b] | 54.0 ± 22.7% | 70 | 4 ± 0.7 µM | 0.0567 ± 0.0048 µM | 0.01 ± 0.0007 µM | 1.1 (S) | 1.2 (S) |  |  |  |  | 
5 | > 2000 µM |  |  | CCCCNC[C@H](O)c1ccc(-c2ccc(C(F)(F)F)cc2)nc1C(F)(F)F [3b] | 40.6 ± 28.3% | >72 | > 100 µM | 1.38 ± 0.993 µM | 0.523 ± 0.0958 µM | 4.0 (S) | 2.9 (S) |  |  |  |  | 
6 | > 2000 µM |  |  | CCCCNC[C@@H](O)c1ccc(-c2ccc(C(F)(F)F)cc2)nc1C(F)(F)F [3a] | 48.3 ND ^c % | 24 | 11.6 ± 0.7 µM | 0.479 ± 0.0382 µM | 0.132 ± 0.0103 µM |  |  |  |  |  |  | 
7 | 1310 ± 540 µM | 0.0073 ± 0.0009 µM | 0.0151 ± 0.0034 µM | CCCCNC[C@H](O)c1cc(C(F)(F)F)nc2c(C(F)(F)F)cccc12 [1b] | 71.3 ± 10.3% | 2503 | 37.8 ± 1.9 µM |  |  | 1.46 (S) | 1 | 15–23 times |  |  |  | 
8 | 1170 ± 320 µM | 0.005 ± 0.0003 µM | 0.0151 ± 0.0033 µM | CCCCNC[C@@H](O)c1cc(C(F)(F)F)nc2c(C(F)(F)F)cccc12 [1a] | 81.8 ± 8.4% | 1695 | 25.6 ± 2.7 µM |  |  | 1.46 (S) | 1 | 15–23 times |  |  |  | 
9 | 1450 ± 300 µM |  |  | CCCCNC[C@@H](O)c1cc(-c2ccc(C(F)(F)F)cc2)nc(C(F)(F)F)c1 [2a] | 73.5 ± 18.0% | 87 | 4 ± 0.9 µM | 0.0458 ± 0.0023 µM | 0.009 ± 0.0004 µM | 1.1 (S) | 1.2 (S) |  |  |  |  | 
